Experimental findings from patent US9023789B2, “Amylin analogs and pharmaceutical compositions thereof” (Novo Nordisk A/S, priority 2012, dated 2015) are described below.

pIC50: −log10 of the molar value. Numbered stars: 1 amine (or outer) side, 2 acyl side, 3 side chain; on linkers, the order of the positions; unused ones are H or OH. Bridge positions count the residues as written; N and C are the ends. Side chains are listed from the residue outwards. Peptide text beside a SMILES is read from it. * marks the point of attachment. C20 diacid = O=C(O)CCCCCCCCCCCCCCCCCCC(=O)*; γGlu = O=C(O)[C@H](CCC(=O)[*:2])N[*:1]; AEEA = NCCOCCOCC(=O)O

Data set [1] addresses T1, rat amylin receptor (rat calcitonin receptor + rat RAMP 3) (Rattus norvegicus, UniProt P32214+Q9JJ73).
T1 construct: expressed in transfected cells; host or cells: BHK tk'ts 13 (transient, FuGENE 6), membranes
T1 sequence (P32214 25-479 isoform P32214-2 limits assumed): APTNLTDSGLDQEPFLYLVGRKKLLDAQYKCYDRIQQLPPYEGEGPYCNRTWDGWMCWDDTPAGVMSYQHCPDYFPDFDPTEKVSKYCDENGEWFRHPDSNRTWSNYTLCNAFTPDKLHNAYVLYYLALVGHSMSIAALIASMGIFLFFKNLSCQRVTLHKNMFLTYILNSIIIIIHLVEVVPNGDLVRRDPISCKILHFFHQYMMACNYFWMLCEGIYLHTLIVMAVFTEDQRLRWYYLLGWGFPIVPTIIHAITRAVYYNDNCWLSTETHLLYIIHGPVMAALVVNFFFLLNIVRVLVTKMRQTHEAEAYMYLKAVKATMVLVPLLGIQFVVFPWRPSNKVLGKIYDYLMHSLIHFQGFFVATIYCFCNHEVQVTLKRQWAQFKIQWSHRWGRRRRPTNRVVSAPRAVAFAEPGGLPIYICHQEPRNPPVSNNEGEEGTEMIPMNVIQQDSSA
T1 sequence (Q9JJ73 23-147 partner): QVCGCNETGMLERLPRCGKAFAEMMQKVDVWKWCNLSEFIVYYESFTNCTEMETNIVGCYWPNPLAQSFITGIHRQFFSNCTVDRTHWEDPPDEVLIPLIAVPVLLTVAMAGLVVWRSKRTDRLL
Kind of data set: ASSAY (VI) binding to the rat amylin receptor. To be noted: for pIC50: binding to rat amylin receptor, read-out: rAmylin-R bind IC50. In short, it runs like this:
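The cell-membrane assay assessed binding at the rat amylin receptor. BHK tk′ts 13 cells were transfected transiently with rat calcitonin receptor, with FuGENE® 6 (Roche) as the transfection reagent, used per the manufacturer's recommendations. Approximately 48 hours after transfection the cells were harvested, and membranes were prepared for measuring binding.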

The nature of data set [2]: ASSAY (III) ThT fibrillation assay for physical stability. Type of data set: physicochemical. In short, it runs like this:
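Physical stability scored by ThT fluorescence (444 nm excitation, 485 nm emission) tracked every 20 min during 37 °C incubation with 960 rpm shaking, ThT at 1 μM final. Values are replicate means with SD at chosen times; HPLC against pramlintide standard gives initial and post-assay soluble concentrations.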

Where [3] appears, read: Table 7, rat binding selectivity, rCTR IC50 / rAmylin-R IC50.
Where [4] appears, read: Table 7a (preferred compounds), rat binding selectivity, rCTR IC50 / rAmylin-R IC50.
[5] abbreviates: ratio of rCTR bind IC50 to rAmylin-R bind IC50.

One may read the pIC50 as the IC50 on a negative log10 scale, so that one unit is a factor of ten. On to `CC[C@H](C)[C@H](NC(=O)[C@H](C)NC(=O)CNC(=O)[C@H](Cc1ccccc1)NC(=O)[C@H](CC(N)=O)NC(=O)[C@@H]1CCCN1C(=O)[C@H](CO)NC(=O)[C@H](CO)NC(=O)[C@H](Cc1c[nH]cn1)NC(=O)[C@H](CCCNC(=N)N)NC(=O)[C@H](CC(C)C)NC(=O)[C@H](Cc1ccccc1)NC(=O)[C@H](Cc1c[nH]cn1)NC(=O)[C@H](C)NC(=O)[C@H](CC(C)C)NC(=O)[C@H](CCCNC(=N)N)NC(=O)[C@H](CCC(N)=O)NC(=O)[C@@H](NC(=O)[C@H](C)NC(=O)[C@@H]1CSSC[C@H](NC(=O)[C@@H](N)CCCCNC(=O)CC[C@H](NC(=O)CCCCCCCCCCCCCCCCCCC(=O)O)C(=O)O)C(=O)N[C@@H](CC(N)=O)C(=O)N[C@@H]([C@@H](C)O)C(=O)N[C@@H](C)C(=O)N[C@@H]([C@@H](C)O)C(=O)N1)[C@@H](C)O)C(=O)N1CCC[C@H]1C(=O)N[C@@H](CO)C(=O)N[C@@H](CO)C(=O)N[C@H](C(=O)N1CCC[C@H]1C(=O)N[C@H](C(=O)NCC(=O)N[C@@H](CO)C(=O)N[C@@H](CC(N)=O)C(=O)N[C@H](C(=O)N[C@@H](Cc1ccc(O)cc1)C(N)=O)[C@@H](C)O)C(C)C)[C@@H](C)O` [Example 62] (H-K([γGlu-C20 diacid])CNTATCATQRLAHFLRHSSPNFGAIPSSTPVGSNTY-NH2; disulfide 2-7; N-terminus assumed), for which, in data set [1] (Table 7), the pIC50 is 9.38. The “Ratio rCT/rAmylin binding” value in data set [1] (setting [3]), in data set [1] (setting [4]) and in data set [1] (setting [5]) was 42.8 each time. Moreover, the “ThT pH 4.0 lag time (h)” value in data set [2] is recorded as 45 h.

Consider `CC[C@H](C)[C@H](NC(=O)[C@H](C)NC(=O)CNC(=O)[C@H](Cc1ccccc1)NC(=O)[C@H](CC(N)=O)NC(=O)[C@@H]1CCCN1C(=O)[C@H](CO)NC(=O)[C@H](CO)NC(=O)[C@H](Cc1c[nH]cn1)NC(=O)[C@H](CCCNC(=N)N)NC(=O)[C@H](CC(C)C)NC(=O)[C@H](Cc1ccccc1)NC(=O)[C@H](CC(N)=O)NC(=O)[C@H](C)NC(=O)[C@H](CC(C)C)NC(=O)[C@H](CCCNC(=N)N)NC(=O)[C@H](CCC(N)=O)NC(=O)[C@@H](NC(=O)[C@H](C)NC(=O)[C@@H]1CSSC[C@H](NC(=O)[C@H](CCCNC(=N)N)NC(=O)[C@@H](N)CCCCNC(=O)COCCOCCNC(=O)CC[C@H](NC(=O)CCCCCCCCCCCCCCCCCCC(=O)O)C(=O)O)C(=O)N[C@@H](CC(N)=O)C(=O)N[C@@H]([C@@H](C)O)C(=O)N[C@@H](C)C(=O)N[C@@H]([C@@H](C)O)C(=O)N1)[C@@H](C)O)C(=O)N1CCC[C@H]1C(=O)N[C@@H](CO)C(=O)N[C@@H](CO)C(=O)N[C@H](C(=O)N[C@@H](CC(N)=O)C(=O)N[C@H](C(=O)NCC(=O)N[C@@H](CO)C(=O)N[C@@H](Cc1c[nH]cn1)C(=O)N[C@H](C(=O)N[C@@H](Cc1ccc(O)cc1)C(N)=O)[C@@H](C)O)C(C)C)[C@@H](C)O` [Example 45] (H-K([AEEA-γGlu-C20 diacid])RCNTATCATQRLANFLRHSSPNFGAIPSSTNVGSHTY-NH2; disulfide 3-8 (inferred)), for which, in data set [1] (Table 7), the pIC50 is 9.21. Further, the “Ratio rCT/rAmylin binding” value in data set [1] (setting [3]), in data set [1] (setting [4]) and in data set [1] (setting [5]) was 67.1 throughout. The “ThT pH 4.0 lag time (h)” value in data set [2] amounted to 45 h.

For `CC[C@H](C)[C@H](NC(=O)[C@H](C)NC(=O)CNC(=O)[C@H](Cc1ccccc1)NC(=O)[C@H](CC(N)=O)NC(=O)[C@@H]1CCCN1C(=O)[C@H](CO)NC(=O)[C@H](CO)NC(=O)[C@H](Cc1c[nH]cn1)NC(=O)[C@H](CCCNC(=N)N)NC(=O)[C@H](CC(C)C)NC(=O)[C@H](Cc1ccccc1)NC(=O)[C@H](CC(N)=O)NC(=O)[C@H](C)NC(=O)[C@H](CC(C)C)NC(=O)[C@H](CCCNC(=N)N)NC(=O)[C@H](CCC(N)=O)NC(=O)[C@@H](NC(=O)[C@H](C)NC(=O)[C@@H]1CSSC[C@H](NC(=O)[C@@H](N)CCCCNC(=O)COCCOCCNC(=O)CC[C@H](NC(=O)CCCCCCCCCCCCCCCCCCC(=O)O)C(=O)O)C(=O)N[C@@H](CC(N)=O)C(=O)N[C@@H]([C@@H](C)O)C(=O)N[C@@H](C)C(=O)N[C@@H]([C@@H](C)O)C(=O)N1)[C@@H](C)O)C(=O)N1CCC[C@H]1C(=O)N[C@@H](CO)C(=O)N[C@@H](CO)C(=O)N[C@H](C(=O)N[C@@H](CC(N)=O)C(=O)N[C@H](C(=O)NCC(=O)N[C@@H](CO)C(=O)N[C@@H](CCCNC(=N)N)C(=O)N[C@H](C(=O)N[C@@H](Cc1ccc(O)cc1)C(N)=O)[C@@H](C)O)C(C)C)[C@@H](C)O` [Example 38], the negative-log IC50 (pIC50) in data set [1] (Table 7) was 9.42. Also, the “ThT pH 4.0 lag time (h)” value in data set [2] worked out at 27 h.

In the case of `CC[C@H](C)[C@H](NC(=O)[C@H](C)NC(=O)CNC(=O)[C@H](Cc1ccccc1)NC(=O)[C@H](CC(N)=O)NC(=O)[C@@H]1CCCN1C(=O)[C@H](CO)NC(=O)[C@H](CO)NC(=O)[C@H](Cc1c[nH]cn1)NC(=O)[C@H](CCCNC(=N)N)NC(=O)[C@H](CC(C)C)NC(=O)[C@H](Cc1ccccc1)NC(=O)[C@H](CCC(=O)O)NC(=O)[C@H](C)NC(=O)[C@H](CC(C)C)NC(=O)[C@H](CCCNC(=N)N)NC(=O)[C@H](CCC(N)=O)NC(=O)[C@@H](NC(=O)[C@H](C)NC(=O)[C@@H]1CSSC[C@H](NC(=O)[C@H](CCCCN)NC(=O)CC[C@H](NC(=O)CCCCCCCCCCCCCCCCCCC(=O)O)C(=O)O)C(=O)N[C@@H](CC(N)=O)C(=O)N[C@@H]([C@@H](C)O)C(=O)N[C@@H](C)C(=O)N[C@@H]([C@@H](C)O)C(=O)N1)[C@@H](C)O)C(=O)N[C@@H](CC(C)C)C(=O)N1CCC[C@H]1C(=O)N[C@@H](CO)C(=O)N[C@H](C(=O)N[C@@H](CC(N)=O)C(=O)N[C@H](C(=O)NCC(=O)N[C@@H](CO)C(=O)N[C@@H](CCC(=O)O)C(=O)N[C@H](C(=O)N[C@@H](Cc1ccc(O)cc1)C(N)=O)[C@@H](C)O)C(C)C)[C@@H](C)O` [Example 33] ({C20 diacid-γGlu}-KCNTATCATQRLAEFLRHSSPNFGAILPSTNVGSETY-NH2; disulfide 2-7), the negative-log IC50 (pIC50) in data set [1] (Table 7) was 8.64. Moreover, the “Ratio rCT/rAmylin binding” value in data set [1] (setting [3]) and in data set [1] (setting [4]) was 12.6 in each case. For the same compound, in data set [2], the “ThT pH 4.0 lag time (h)” value is 9 h.

For `CC[C@H](C)[C@H](NC(=O)[C@H](C)NC(=O)CNC(=O)[C@H](Cc1ccccc1)NC(=O)[C@H](CC(N)=O)NC(=O)[C@@H]1CCCN1C(=O)[C@H](CO)NC(=O)[C@H](CO)NC(=O)[C@H](Cc1c[nH]cn1)NC(=O)[C@H](CCCNC(=N)N)NC(=O)[C@H](CC(C)C)NC(=O)[C@H](Cc1ccccc1)NC(=O)[C@H](CCCNC(=N)N)NC(=O)[C@H](C)NC(=O)[C@H](CC(C)C)NC(=O)[C@H](CCCNC(=N)N)NC(=O)[C@H](CCC(N)=O)NC(=O)[C@@H](NC(=O)[C@H](C)NC(=O)[C@@H]1CSSC[C@H](NC(=O)[C@@H](N)CCCCNC(=O)COCCOCCNC(=O)CC[C@H](NC(=O)CCCCCCCCCCCCCCCCCCC(=O)O)C(=O)O)C(=O)N[C@@H](CC(N)=O)C(=O)N[C@@H]([C@@H](C)O)C(=O)N[C@@H](C)C(=O)N[C@@H]([C@@H](C)O)C(=O)N1)[C@@H](C)O)C(=O)N1CCC[C@H]1C(=O)N[C@@H](CO)C(=O)N[C@@H](CO)C(=O)N[C@H](C(=O)N1CCC[C@H]1C(=O)N[C@H](C(=O)NCC(=O)N[C@@H](CO)C(=O)N[C@@H](CC(N)=O)C(=O)N[C@H](C(=O)N[C@@H](Cc1ccc(O)cc1)C(N)=O)[C@@H](C)O)C(C)C)[C@@H](C)O` [Example 64] (H-K([AEEA-γGlu-C20 diacid])CNTATCATQRLARFLRHSSPNFGAIPSSTPVGSNTY-NH2; disulfide 2-7; N-terminus assumed), the pIC50 in data set [1] (Table 7) is 8.70. The “Ratio rCT/rAmylin binding” value in data set [1] (setting [3]), in data set [1] (setting [4]) and in data set [1] (setting [5]) was 64.7 throughout. In addition, the “ThT pH 4.0 lag time (h)” value in data set [2] was found to be 45 h.
